Data taken from the NIST ThermoML archive (doi:10.1021/acs.jced.6b00680).

Assays:
[1] = an = ratio of the nth substance listed; conditions: 100 kPa, Liquid, Concentric cylinders viscometry
[2] = 101.33 kPa, Liquid, Concentric cylinders viscometry

C[N+](C)(C)CCO.[Cl-] [choline chloride] + OCCO
[1], a2 = 2
Conditions	viscosity [mPa·s]
293.2 K	60.9
298.2 K	51.4
303.2 K	44.3
308.2 K	38.1
313.2 K	33.5
318.2 K	29.4
323.2 K	26.1
328.2 K	23.3
333.2 K	21.1
338.2 K	19.3
343.2 K	17.6
348.2 K	16.3
353.2 K	15.2

OCC(O)CO [glycerol]
[2]
Conditions	viscosity [mPa·s]
296.5 K	1252
302.8 K	673.4
315.8 K	260.6
323.2 K	148.9
332.7 K	97.5
343.2 K	51.9
348.2 K	42.8
354.2 K	34.9

NC(N)=O [urea] + C[N+](C)(C)CCO.[Cl-]
[1], a1 = 2
Conditions	viscosity [mPa·s]
293.2 K	1685.8
298.2 K	1012.3
303.2 K	658.5
308.2 K	454.9
313.2 K	333.6
318.2 K	259.8
323.2 K	210.6
328.2 K	179.5
333.2 K	160.8
338.2 K	142.6
343.2 K	129
348.2 K	115.6
353.2 K	106.7
